Patent US5519043A, “Fluorenyl derivatives” (Scios Nova Inc., priority 1993, dated 1996)

Key:
[1] = system: plasma fibrinogen in arthritis model; assay: Adjuvant arthritis test: inhibition of adjuvant-elevated plasma fibrinogen in rats; format: in vivo, Male Sprague Dawley rats; settings: rat
[2] = system: reverse passive Arthus reaction (blueing by antigen and antibody); assay: Reverse Passive Arthus Reaction (RPA); format: in vivo, Male SD rats; settings: rat
Experimental: Male SD rats weighing between 200 and 300 g were used. Test compounds were dissolved in dimethyl sulfoxide and 1 ml/kg of this stock solution (100 mg/ml), on serial dilutions were injected intraperitoneally one hour before administration of the antigen or given orally. The animals were anesthetized inhalationally with isoflurane and then injected through the penile vein with 1 ml of a solution of 2.5 mg of Evan's blue dye and 5.0 mg of human serum albumin in 1 ml of saline. This treatment was followed immediately by intracutaneous injections of 0.075 ml of anti-human albumin diluated to contain 4.38 mg/ml of antibody at 2 sites opposite the midline back. Anesthesia was terminated and after three hours, the animals were sacrificed. The skin was removed and the blue stained areas cut out. The skin patches were soaked overnight in stoppered tubes containing 2 ml of 1N potassium hydroxide at 5° C. Then 9 ml of a mixture of five parts of a 1.2N phosphoric acid and thirteen parts of acetone were added to the tubes. The tube contents were agitated and centrifuged, and the absorbance measured at 620 nm. The data were calculated as inhibition of blueing by test compound compared to control animals receiving only antigen and antibody.

[3] = system: ear edema caused by oxazolone; assay: Inhibition of Ear Edema Caused by Oxazolone; format: in vivo, CF-1 mice; settings: mouse, 24 hours
Experimental: CF-1 mice, 25-30 g body weight, six animals per group were used. The mice were sensitized to the irritant two weeks prior to the test by dribbling 100 μL of a 3% solution of oxazolone in acetone onto the scrotum of the animal. Test compounds were administered orally at doses of 100 mg/kg and 300 mg/kg for 1 hour prior to oxazolone, intraperitoneally as follows: The test compound was dissolved in dimethyl sulfoxide and doses of 10 mg/kg, 30 mg/kg, and 100 mg/kg were injected 15 mintures prior to irritant. The irritant, 3% oxazolone in acetone, was added to the surface of the ear, 5 μL added to the upper surface and 5 μL added to the lower surface. After twenty four hours the thickness of the ear was measured to 0.01 mm by a micrometer with loose drag, positioned at the lateral-most edge of the mid-point of the pinna. Data were calculated as the inhibition of increased ear thickness compared to control animals' receiving only the irritant. In general, % inhibition of greater than 20% is statistically significant (p<0.05 or less, Student's t-test for unpaired data).

SMILES | RPA (p.o.) 100 mg/kg inhibition [2] | AA (i.p.) % inhibition at 100 mg/kg (inhibited plasma fibrinogen in arthritis model) ([1]; 100 mg/kg) | AA (p.o.) % inhibition at 100 mg/kg (inhibited plasma fibrinogen in arthritis model) ([1]; 100 mg/kg) | other results
O=C(CCC1c2ccccc2-c2ccccc21)Nc1ccccc1C(=O)O [Example 14, N-[3-(9-Fluorenyl)propionyl]anthranilic acid] |  |  |  | Inhibition of plasma fibrinogen levels ([1]; 10 mg/kg): 22%; Inhibition of plasma fibrinogen levels ([1]; 30 mg/kg): 19%; Inhibition of plasma fibrinogen levels ([1]; 100 mg/kg): 51%
O=C(Nc1ccc(C(=O)O)cc1)OCCC1c2ccccc2-c2ccccc21 [Example 7, N-[9H-(Fluorenyl-9-ethoxycarbonyl)]amino-4-benzoic acid] | 25% | 63% | 39% | Inhibition of increased ear thickness ([3]; i.p., 10 mg/kg): 46%; Inhibition of increased ear thickness ([3]; i.p., 30 mg/kg): 82%; Inhibition of increased ear thickness ([3]; i.p., 100 mg/kg): 79%; Inhibition of increased ear thickness ([3]; orally, dose of this value not stated (100 and 300 mg/kg in method)): 50%; Plasma fibrinogen level, drug by itself ([1]; 100 mg/kg p.o., n=5, without adjuvant, basal 2.44±0.08 mg/ml): 4.8 ± 0.6 mg/mL; Maximum inhibition of plasma fibrinogen ([1]; given orally, maximum achieved at 3 mg/kg): 50%
Cc1ccc2c(c1)C(CCOC(=O)Nc1ccc(C(=O)O)cc1)c1cc(C)ccc1-2 [Example 8, N-[9H-(2,7-Dimethylfluorenyl-9-ethoxycarbonyl)]amino-4-benzoic acid] | 0% | 69% | 48% | 
O=C(Nc1ccc(C(=O)O)cc1)OCCCC1c2ccccc2-c2ccccc21 [Example 23, 4-[3-(9H-Fluoren-9-yl)propoxycarbonyl]-aminobenzoic acid] | 1% |  |  | 
O=C(Nc1ccc(C(=O)O)cc1)SCCC1c2cc(Cl)ccc2-c2ccc(Cl)cc21 [Example 27] |  | 54% | 52% | 
O=C(Nc1ccc(C(=O)O)cc1)OCCC1c2cc(Cl)ccc2-c2ccc(Cl)cc21 [Example 9] | 54% | 78% | 38% | 
O=C(Nc1ccc(C(=O)O)cc1)SCCC1c2cc(Br)ccc2-c2ccc(Br)cc21 [Example 28] | 1% | 72% | 41% | 
O=C(CCCC1c2ccccc2-c2ccccc21)Nc1ccc(C(=O)O)cc1 [Example 25, 4-[9H-(Fluoren-9-yl)]butyric acid-4-carboxyanilide] | 0% |  | 15% | 
O=C(Nc1ccc(C(=O)O)cc1)SCCC1c2ccccc2-c2ccccc21 [Example 26, N-[2-(9H-Fluoren-9-yl)ethylthioxycarbonyl]-4-aminobenzoic acid] |  | 70% | 56% | 
